Laboratory results taken from ChEMBL document CHEMBL4673262, “Ginkgobilol, a new diarylpentanoid and an osteogenic diarylpentanoid analog from Ginkgo biloba leaves” (2020).
Active and inactive are the calls of the source. No cut-off for these calls is given here.

Assays:
C3H 10T1/2 [1] = test: Induction of osteogenic differentiation in mouse C3H10T1/2 cells upto 40 uM assessed as osteoblast by measuring alkaline phosphatase after 10 days of differentiation relative to control; format: functional, cell-based; conditions: dose microM <=40, time 10.0 day
C3H 10T1/2 [2] = test: Induction of osteogenic differentiation in mouse C3H10T1/2 cells assessed as osteoblast by measuring increase in alkaline phosphatase at 20 uM relative to control; format: functional, cell-based
C3H 10T1/2 [3] = test: Induction of osteogenic differentiation in mouse C3H10T1/2 cells assessed as increase in osteopontin mRNA expression by RT-qPCR analysis relative to control; format: functional, cell-based
[4] = Induction of osteogenic differentiation in mouse C3H10T1/2 cells assessed as increase in alkaline phosphatase mRNA expression at 40 uM by RT-qPCR analysis relative to control; format: functional, C3H 10T1/2
[5] = Induction of osteogenic differentiation in mouse C3H10T1/2 cells assessed as increase in osteopontin mRNA expression at 40 uM by RT-qPCR analysis relative to control; format: functional, C3H 10T1/2
C3H 10T1/2 [6] = test: Induction of osteogenic differentiation in mouse C3H10T1/2 cells assessed as increase in alkaline phosphatase mRNA expression by RT-qPCR analysis relative to control; format: functional, cell-based
C3H 10T1/2 [7] = test: Induction of osteogenic differentiation in mouse C3H10T1/2 cells assessed as increase in alkaline phosphatase mRNA expression at 5 uM by RT-qPCR analysis relative to control; format: functional, cell-based
C3H 10T1/2 [8] = test: Induction of osteogenic differentiation in mouse C3H10T1/2 cells assessed as increase in osteopontin mRNA expression at 5 uM by RT-qPCR analysis relative to control; format: functional, cell-based

## Oc1ccc(/C=C\C/C=C\c2ccc(O)cc2)cc1
C3H 10T1/2 [1]
  Activity: Dose-dependent effect
C3H 10T1/2 [2]
  Activity: Active
C3H 10T1/2 [3]
  Activity: Dose-dependent effect
[4]
  fold change (FC): 7.8
[5]
  fold change (FC): 4.7
C3H 10T1/2 [6]
  Activity: Dose-dependent effect

## CO[C@@H](c1ccc(O)cc1)[C@H](O)C/C=C\c1ccc(O)cc1
C3H 10T1/2 [2]
  Activity: inactive

## COc1cc([C@H]2O[C@H](c3cc(OC)c(O)c(OC)c3)[C@@H](COC(=O)/C=C/c3ccc(O)cc3)[C@@H]2COC(=O)/C=C/c2ccc(O)cc2)cc(OC)c1O
C3H 10T1/2 [7]
  Activity: Active
C3H 10T1/2 [8]
  Activity: Active
